Tests used:
[1] = Flowability of powder / final mixture; type: physicochemical; conditions: drug per se
[2] = oral; cited from earlier work
[3] = cited from earlier work
[4] = X-ray diffraction analysis of eprosartan mesylate form / physical stability; type: physicochemical; conditions: ambient temperature and humidity
Description: During the dry granulation processes using different excipients from the list above, physical stability of the eprosartan mesylate anhydrate was investigated. […] The final tablet form and placebo powder were analyzed by X-ray diffraction (XRD) pattern to confirm presence of anhydrous form of eprosartan mesylate.
Diffractograms were collected on X′Pert PRO MPD diffractometer using CuKα radiation.
Data were recorded from 2 do 40° 2θ; in steps of 0.033° 2θ; with the integration times 50 s (routine testing) and from 4 do 20° 2θ; in steps of 0.033° 2θ; with the integration times 2000 s (to achieve lower LOD). The range for measurements with longer integration times was chosen according to the known diffractograms of eprosartan mesylate crystalline forms, which all have characteristic peaks in the carefully measured range between 4 and 20° 2theta.

[5] = at RH over 60%; cited from earlier work

flowability of eprosartan mesylate [1]: below 0.15 g/sec
physical and chemical stability of anhydrous form [4]: physically and chemically stable
Compound: CCCCc1ncc(/C=C(\Cc2cccs2)C(=O)O)n1Cc1ccc(C(=O)O)cc1.CS(=O)(=O)O [Eprosartan mesylate, (E)-α-[2-n-butyl-1-[(4-carboxyphenyl)methyl]-1H-imidazol-5-yl]methylene-2-thiophenepropionic acid monomethanesulfonate]
bioavailability [2]: 13%
permeability across the intestinal epithelium [3]: low permeability
interconversion of anhydrous form [5]: interconverts to eprosartan mesylate mono- and later to dihydrate
